Assay results reported in patent US20140107171A1, “Methods of Treating an Overweight or Obese Subject” (Zafgen, Inc., priority 2008, published 2014).

System: diet-induced obese mice
Assay: Weight loss study in diet-induced obese mice, oral administration
Format: in vivo
Conditions: C57BL/6NTac mice on 60% fat diet; 1.0 mg/kg orally in 10% gelucire in deionised water, once a day for 8 days
Method: A weight loss study is conducted in obese mice. The mice in this study are not genetically obese, BUT prior to and during the study, obesity is induced by a high-fat diet. Twelve week-old C57BL/6NTac mice, are maintained on a 60% fat diet prior to and during the study, are separated into […], eight animals per group. Average body weight of the mice is taken at the start of the study.
Each of six groups is orally administered 1.0 mg/kg of a compound disclosed herein in 10% gelucire in DEIONISED water. Each of these six groups is administered a different compound. One group is orally administered fumagillin at 1.0 mg/kg in 10% gelucire in deionised water, and one group is administered 10% gelucire in deionised water (vehicle). Mice receive administrations once a day for 8 days.

With `CO[C@@H]1[C@H](OC(=O)/C=C/C=C/C=C/C=C/C(=O)O)CC[C@]2(CO2)[C@H]1[C@@]1(C)O[C@@H]1CC=C(C)C` [fumagillin] the “body weight change over the course of the 8 days” value was “weight over the course of the 8 days”.
